Experimental findings from patent US9963443B2, “Radiolabeled compounds” (TAKEDA PHARMACEUTICAL COMPANY LIMITED, priority 2014, dated 2018) are described below.

Data set [1] addresses CH24H (Macaca mulatta, UniProt I2CYF7). Nature of the data set: PET measurements and image analysis after intravenous bolus of radiotracer. The class given is in vivo, rhesus macaque (macaca mulatta). Conditions: for BPND in the putamen: Logan graphical analysis, cerebellum as reference region, t* 40 min. Here is the method:
Animals were fasted for 18-24 h before the study. At 2 h prior to injection of the radiopharmaceutical, the animals were anesthetized with intramuscular ketamine (10 mg/kg) and glycopyrrolate (0.01 mg/kg), transferred to the PET camera, and immediately intubated with an endrotracheal tube for continued anesthesia with 2.75% isoflurane administered through a rebreathing circuit. Body temperature was kept at 37° C. using a heated water blanket. Vital signs, including heart rate, blood pressure, respiration rate, oxygen saturation and body temperature, were monitored every 3 to 20 min during the study.
The dynamic series were subsequently reconstructed using filtered back projection with corrections for random, scatter, and attenuation provided by the camera manufacturer.
Four samples of 5 mL were drawn at 3, 10, 30 and 60 min post injection to evaluate the stability in blood as well as the metabolite analysis method and HPLC conditions.
Reconstructed PET image data volumes were transferred to the image processing PMOD software package (PMOD Technologies, Zurich, Switzerland) where the images were realigned with the monkey's individual MRI to apply a volume of interest (VOI) template comprising the following regions: whole brain, caudate nucleus, putamen, globus pallidus, frontal cortex, temporal cortex, occipital cortex, parietal cortex, anterior cingulate cortex, posterior cingulated cortex, hippocampus, thalamus, and cerebellum. Average activity concentration (kBq/cc) within each VOI was determined and time activity curves (TAC) were generated for each study, depicting the regional brain activity concentration over time and reflecting total uptake (specific plus non displaceable). Time activity curves were also expressed in SUV (Standard Uptake Value) units (g/mL) by normalizing by the weight of the animal and the injected dose. Logan graphical analysis with reference region input function was applied to the regional time activity curves with t* fixed at 40 min to obtain an estimate of BPND (Binding Potential relative to the Non-Displaceable compartment), where the cerebellum was used as the reference region.

Data set [2] has as its target human CH24H (Homo sapiens (Human), UniProt Q9Y6A2). Nature of the data set: Measurement of CH24H inhibitory activity (24-HC produced from [14C]cholesterol by human CH24H lysate). As to conditions: [14C]cholesterol 15 μM, 37° C. for 5 hr. The class given is biochemical. Here is the method: The expression of human CH24H was performed using FreeStyle 293 Expression System (Invitrogen). […] After transfection, the cells were cultured at 37° C., 8% CO2 with shaking at 125 rpm for 2 days. The cells were collected by centrifugation, and suspended in a suspension buffer (100 mM potassium phosphate (pH 7.4), 0.1 mM EDTA, 1 mM DTT, 20% Glycerol). The suspended product was disrupted by a polytron homogenizer (manufactured by Kinematica), and centrifuged at 9000×g for 10 min, and the supernatant was collected. The collected supernatant was cryopreserved (−80° C.) as a human CH24H lysate standard product.
For the measurement of CH24H inhibitory activity, using the human CH24H lysate prepared in Experimental Example 2, the amount of 24-HC produced from cholesterol by catalytic activity of CH24H was measured in the presence of a test compound, and compared with that measured in the absence of the test compound. That is, a test compound solution at various concentrations was mixed with a reaction buffer (50 mM potassium phosphate containing 0.1% BSA and Complete, EDTA-free, pH 7.4) and human CH24H lysate. Then, [^14C] cholesterol (53 mCi/mmol specific activity, 15 μM) was added, and CH24H reaction was performed at 37° C. for 5 hr. After completion of the reaction, a quenching solution consisting of chloroform/methanol/distilled water (2:2:1 v/v) was added, and the resulting 24-HC was extracted by shaking. The extract was applied to silica gel thin layer chromatography (ethyl acetate:toluene=4:6), and the obtained ^14C-24HC fraction was measured with BAS2500 (Fujifilm Corporation).
The inhibitory rate (%) and IC50 values (μM) were calculated from the ratio of radioactivity in the presence of a test compound relative to the radioactivity in the absence of the test compound.

Data set [3] concerns other CNS related human receptors and enzymes. Briefly: Selectivity assay over other CNS related human receptors and enzymes (Eurofins Panlabs, Tables 3-1 and 3-2). The class given is binding. Conditions: at 10 μM. Here is the method:
The CH24H IC50 is a measure of the ability of the test compound to inhibit the action of the CH24H enzyme. To determine the selectivity of the test compounds for CH24H, inhibitory activities of the compound were determined for other CNS (central nerve system) related receptors and enzymes such as Adenosine A2B, Adrenergic β1, Adrenergic β2, Adrenergic β3, Angiotensin AT2, Bradykinin B1, Cannabinoid CB1, Carbonic Anhydrase II, Acetyl Cholinesterase, Cyclooxygenase (COX-1), Cyclooxygenase (COX-2), Dopamine D1, Dopamine D2L, Dopamine D3, Dopamine D4.2, GABA B1A, GABA B1B, Histamine H1, Histamine H2, Imidazoline I2 (Central), MAO A, MAO B, Muscarinic M1, Muscarinic M2, Muscarinic M3, Opiate κ (OP2, KOP), Opiate μ (OP3; MOP), Metalloproteinase, Phosphodiesterase 4 (PDE4), Phosphodiesterase 5 (PDE5), 5-HT2B, NK2, NK3, Dopamine transporter, Norepinephrine transporter, Serotonin transporter (SERT), Vasopressin V1A. […] Such a result is indicative of the selectivity of the compounds in use as radiotracers for quantitative imaging of CH24H. In general, one of ordinary skill in the art would appreciate that a substance is considered to be effectively used for quantitative imaging of CH24H if it has an activity in inhibiting other CNS related receptors and enzymes with less than 50% at 10 μM. […]

CH24H, sequence (I2CYF7 1-500): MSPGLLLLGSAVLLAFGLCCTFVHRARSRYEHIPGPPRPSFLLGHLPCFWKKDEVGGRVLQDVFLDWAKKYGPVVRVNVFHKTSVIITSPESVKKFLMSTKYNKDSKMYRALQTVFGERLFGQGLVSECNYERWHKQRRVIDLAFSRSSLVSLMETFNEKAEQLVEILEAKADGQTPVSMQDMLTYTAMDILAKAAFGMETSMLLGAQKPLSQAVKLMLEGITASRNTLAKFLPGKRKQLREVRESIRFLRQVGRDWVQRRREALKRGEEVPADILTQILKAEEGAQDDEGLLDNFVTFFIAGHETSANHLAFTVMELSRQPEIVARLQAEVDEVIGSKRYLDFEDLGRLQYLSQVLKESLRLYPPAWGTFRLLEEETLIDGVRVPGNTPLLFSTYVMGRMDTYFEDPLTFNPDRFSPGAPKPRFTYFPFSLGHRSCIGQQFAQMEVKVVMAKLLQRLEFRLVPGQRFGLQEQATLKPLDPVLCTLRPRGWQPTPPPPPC
human CH24H, sequence (Q9Y6A2 whole entry): as the sequence (I2CYF7 1-500) above, with I87V, S417G, T494A counted along it

Take `O=C(C1CCN(c2cncnc2-c2ccc(F)cc2)CC1)N1CC([18F])C1` [Example 2, (3-[^18F]fluoroazetidin-1-yl) (1-(4-(4-fluorophenyl)pyrimidin-5-yl)piperidin-4-yl)methanone]: the “BPND in the putamen” value in data set [1] was determined as 2.6. In data set [1] (rhesus monkey, in vivo), the brain kinetics entry is “favorable kinetics with a significant washout following the maximum uptake”; the “regional brain uptake (distribution)” value is “highest uptake in the putamen and caudate”. In data set [1] (rhesus monkey, in vivo, iv), the “time of maximum SUV in the putamen” value is about 30 min post injection and the “whole-brain maximum % ID” value amounted to 2.3%. For the molecule `CN(C(=O)C1CCN(c2cncnc2-c2ccc(F)cc2)CC1)C1CC1` [Reference Example 1, N-cyclopropyl-1-(4-(4-fluorophenyl)pyrimidin-5-yl)-N-methylpiperidine-4-carboxamide], the IC50 (as a rule, the concentration at which inhibition is half-maximal) in data set [2] was determined as 5.4 nM. In data set [2], `O=C(C1CCN(c2cncnc2-c2ccc(F)cc2)CC1)N1CC(F)C1` [Reference Example 2, (3-fluoroazetidin-1-yl) (1-(4-(4-fluorophenyl)pyrimidin-5-yl)piperidin-4-yl)methanone] returned an IC50 of 8.8 nM. The “inhibition in the assays listed in Tables 3-1 and 3-2” value in data set [3] is “less than 50%”.

The molecule `CN(C(=O)C1CCN(c2cnccc2-n2cc(Cl)cn2)CC1)C1CCOCC1` [Reference Example 3, 1-(4-(4-chloro-1H-pyrazol-1-yl)pyridin-3-yl)-N-methyl-N-(tetrahydro-2H-pyran-4-yl)piperidine-4-carboxamide] had an IC50 in data set [2] of 7.4 nM. On the same count and under the same terms, the same measure for `Cc1cnn(-c2ccncc2N2CCC(C(=O)N3CC(F)C3)CC2)c1` [Reference Example 4, (3-fluoroazetidin-1-yl) (1-(4-(4-methyl-1H-pyrazol-1-yl)pyridin-3-yl)piperidin-4-yl)methanone]: 7.1 nM. `O=C(C1CCN(c2cnccc2-n2cc(Cl)cn2)CC1)N1CC(F)C1` [Reference Example 5, (1-(4-(4-chloro-1H-pyrazol-1-yl)pyridin-3-yl)piperidin-4-yl) (3-fluoroazetidin-1-yl)methanone] yielded an IC50 in data set [2] of 19 nM. For the molecule `O=C(C1CCN(c2cncnc2-c2ccc(F)cc2)CC1)N1CC[C@H](F)C1` [Reference Example 10, (1-(4-(4-fluorophenyl)pyrimidin-5-yl)piperidin-4-yl) ((3S)-3-fluoropyrrolidin-1-yl)methanone], in data set [2], it took 20 nM to reach half-maximal inhibition (IC50). Same read-out and setting: with `O=C(C1CCN(c2cncnc2-c2ccc(F)cc2)CC1)N1CC[C@@H](F)C1` [Reference Example 11, (1-(4-(4-fluorophenyl)pyrimidin-5-yl)piperidin-4-yl) ((3R)-3-fluoropyrrolidin-1-yl)methanone] the figure was 16 nM; with `CN(C(=O)C1CCN(c2cnccc2-n2cc(Cl)cn2)CC1)[C@H]1CCOC1` [Reference Example 13, 1-(4-(4-chloro-1H-pyrazol-1-yl)pyridin-3-yl)-N-methyl-N-((3S)-tetrahydrofuran-3-yl)piperidine-4-carboxamide], 20 nM.

`CN(C(=O)C1CCN(c2cnccc2-n2cc(Cl)cn2)CC1)[C@@H]1CCOC1` [Reference Example 14, 1-(4-(4-chloro-1H-pyrazol-1-yl)pyridin-3-yl)-N-methyl-N-((3R)-tetrahydrofuran-3-yl)piperidine-4-carboxamide] gave an IC50 in data set [2] of 17 nM. Same read-out and setting: with `O=C(C1CCN(c2cnccc2-n2cc(Br)cn2)CC1)N1CC(F)C1` [Reference Example 20, (1-(4-(4-bromo-1H-pyrazol-1-yl)pyridin-3-yl)piperidin-4-yl) (3-fluoroazetidin-1-yl)methanone] the figure was 6.9 nM.

`Cc1cnc(-c2ccncc2N2CCC(C(=O)N3CC(F)C3)CC2)s1` [Reference Example 21, (3-fluoroazetidin-1-yl) (1-(4-(5-methyl-1,3-thiazol-2-yl)pyridin-3-yl)piperidin-4-yl)methanone]: the IC50 in data set [2] came to 4.9 nM. The IC50 values of the last two molecules are within 1.5-fold of each other. In data set [2], `Cc1cnn(-c2ccncc2N2CCN(C(=O)N(CCF)Cc3ccc(F)cc3)CC2)c1` [Reference Example 23, N-(4-fluorobenzyl)-N-(2-fluoroethyl)-4-(4-(4-methyl-1H-pyrazol-1-yl)pyridin-3-yl)piperazine-1-carboxamide] showed an IC50 of 17 nM. The molecule `O=C(C1CCN(c2cnccc2-n2cc(C3CC3)cn2)CC1)N1CC(F)C1` [Reference Example 26, (1-(4-(4-cyclopropyl-1H-pyrazol-1-yl)pyridin-3-yl)piperidin-4-yl) (3-fluoroazetidin-1-yl)methanone] had an IC50 in data set [2] of 10 nM. Take “(1-(4-(4-chloro-1H-pyrazol-1-yl)pyridin-3-yl)piperidin-4-yl) (3-[^18F]fluoroazetidin-1-yl)methanone [Example 1]”: the “BPND in the putamen” value in data set [1] was found to be 2.3. Moreover, in data set [1] (female rhesus macaque, PET time activity curves), the brain kinetics entry is “favorable kinetics with a significant washout following the maximum uptake”. In addition, the “regional brain uptake (distribution)” value in data set [1] (female rhesus macaque, PET time activity curves (FIG. 1, FIG. 2)) was “highest uptake in the putamen and caudate”. Moreover, in data set [1] (female rhesus macaque, i.v. bolus, PET), the “whole-brain maximum % ID” value is on record as 1.6%.
